Measured values as given in US12600725B2 (Memorial Sloan-Kettering Cancer Center, priority 2013, dated 2026).
Several values for one entry are separate records, joined by “and”; a condition that tells them apart may be missing. Identical values can stand only once. Entries after “also recorded” stand apart in the source; their conditions may differ. Like-named read-outs stand apart in the source and are kept apart here.

Columns and labels:
[1] = molecular target: T1, Trap-1 (Homo sapiens, UniProt Q12931); conditions: for decrease in binding efficacy for Trap-1: relative to Hsp90; for loss of affinity for Trap-1: Hsp90 vs Trap-1
T1 sequence (Q12931 60-704): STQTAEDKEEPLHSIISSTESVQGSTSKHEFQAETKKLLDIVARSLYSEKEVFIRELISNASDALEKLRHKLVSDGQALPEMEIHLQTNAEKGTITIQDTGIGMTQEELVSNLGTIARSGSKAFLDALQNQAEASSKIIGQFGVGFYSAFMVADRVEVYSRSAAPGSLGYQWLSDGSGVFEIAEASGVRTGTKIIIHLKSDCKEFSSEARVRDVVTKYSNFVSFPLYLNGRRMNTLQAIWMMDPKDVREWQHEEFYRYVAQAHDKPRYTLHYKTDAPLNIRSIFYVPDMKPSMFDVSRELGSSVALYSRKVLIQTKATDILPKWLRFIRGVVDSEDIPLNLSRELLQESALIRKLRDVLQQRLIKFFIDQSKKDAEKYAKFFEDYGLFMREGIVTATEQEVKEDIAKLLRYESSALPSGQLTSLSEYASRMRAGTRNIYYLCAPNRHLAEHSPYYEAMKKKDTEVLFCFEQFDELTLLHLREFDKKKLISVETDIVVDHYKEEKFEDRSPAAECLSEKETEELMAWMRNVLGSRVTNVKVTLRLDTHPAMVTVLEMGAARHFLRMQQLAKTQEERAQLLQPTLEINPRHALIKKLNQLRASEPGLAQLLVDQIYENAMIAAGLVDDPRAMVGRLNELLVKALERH

[2] = system: Grp94; conditions: Hsp90 vs Grp94
[3] = molecular target: T2, Grp94 (Canis lupus familiaris, UniProt P41148); conditions: read-out: Grp94 IC50; 43a as FP probe
T2 sequence (P41148 with tags, fused parts or gaps DELINS287-327GGGG): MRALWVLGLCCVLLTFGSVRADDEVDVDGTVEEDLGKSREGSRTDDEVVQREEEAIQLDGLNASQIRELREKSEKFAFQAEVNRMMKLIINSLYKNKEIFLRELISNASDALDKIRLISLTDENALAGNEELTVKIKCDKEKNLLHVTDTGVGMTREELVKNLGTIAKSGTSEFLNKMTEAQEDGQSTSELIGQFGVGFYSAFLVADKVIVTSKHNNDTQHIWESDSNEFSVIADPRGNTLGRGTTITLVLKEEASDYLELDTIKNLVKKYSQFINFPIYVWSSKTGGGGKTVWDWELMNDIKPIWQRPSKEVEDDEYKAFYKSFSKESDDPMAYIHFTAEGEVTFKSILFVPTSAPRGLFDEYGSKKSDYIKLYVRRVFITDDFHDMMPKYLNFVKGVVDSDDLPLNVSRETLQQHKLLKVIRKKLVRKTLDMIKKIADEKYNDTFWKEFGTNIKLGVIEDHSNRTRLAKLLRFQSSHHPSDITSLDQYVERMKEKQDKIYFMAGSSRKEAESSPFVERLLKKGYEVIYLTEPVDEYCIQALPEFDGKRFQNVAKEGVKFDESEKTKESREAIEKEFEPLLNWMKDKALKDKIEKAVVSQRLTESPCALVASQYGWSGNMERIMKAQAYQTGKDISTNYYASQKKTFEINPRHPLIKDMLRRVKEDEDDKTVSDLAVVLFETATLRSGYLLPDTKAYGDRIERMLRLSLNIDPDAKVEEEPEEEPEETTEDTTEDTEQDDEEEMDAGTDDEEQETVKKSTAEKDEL

[4] = system: MDA-MB-468 cells; assay: Growth inhibition assay (Alamar blue); format: cell-based; conditions: Homo sapiens
Method: We evaluated the antiproliferative effects of inhibitors using the dye Alamar blue. This reagent offers a rapid objective measure of cell viability in cell culture, and it uses the indicator dye resazurin to measure the metabolic capacity of cells, an indicator of cell viability. Briefly, MDA-MB-468 cells were plated on Costar 96-well plates at 1500 cells/well. Cells were allowed to incubate for 24 h at 37° C. before drug treatment. Drugs were added in triplicate at the indicated concentrations, and the plate was incubated for 72 h. Alamar Blue (440 μM) was added, and the plate read 6 h later using Softmax Pro 6 software (Fluorescence intensity mode, excitation 530 nm, emission 580 nm, with 560 nm dichroic mirror). Results were analyzed using GraphPad Prism 5. The percentage cell growth inhibition was calculated by comparing fluorescence readings obtained from treated versus control cells, accounting for initial cell population (time zero).

[5] = molecular target: T2, Grp94; conditions: read-out: Grp94; FP competition, 6 nM Cy3B-GM, 10 nM protein, 4° C. for 24 h
[6] = molecular target: T3, Hsp90α (Homo sapiens, UniProt P07900); assay: biochemical; conditions: FP competition, 6 nM Cy3B-GM, 10 nM protein, 4° C. for 24 h
[7] = molecular target: Hsp90β (Homo sapiens, UniProt P08238)
Sequence of Hsp90β (P08238 whole entry): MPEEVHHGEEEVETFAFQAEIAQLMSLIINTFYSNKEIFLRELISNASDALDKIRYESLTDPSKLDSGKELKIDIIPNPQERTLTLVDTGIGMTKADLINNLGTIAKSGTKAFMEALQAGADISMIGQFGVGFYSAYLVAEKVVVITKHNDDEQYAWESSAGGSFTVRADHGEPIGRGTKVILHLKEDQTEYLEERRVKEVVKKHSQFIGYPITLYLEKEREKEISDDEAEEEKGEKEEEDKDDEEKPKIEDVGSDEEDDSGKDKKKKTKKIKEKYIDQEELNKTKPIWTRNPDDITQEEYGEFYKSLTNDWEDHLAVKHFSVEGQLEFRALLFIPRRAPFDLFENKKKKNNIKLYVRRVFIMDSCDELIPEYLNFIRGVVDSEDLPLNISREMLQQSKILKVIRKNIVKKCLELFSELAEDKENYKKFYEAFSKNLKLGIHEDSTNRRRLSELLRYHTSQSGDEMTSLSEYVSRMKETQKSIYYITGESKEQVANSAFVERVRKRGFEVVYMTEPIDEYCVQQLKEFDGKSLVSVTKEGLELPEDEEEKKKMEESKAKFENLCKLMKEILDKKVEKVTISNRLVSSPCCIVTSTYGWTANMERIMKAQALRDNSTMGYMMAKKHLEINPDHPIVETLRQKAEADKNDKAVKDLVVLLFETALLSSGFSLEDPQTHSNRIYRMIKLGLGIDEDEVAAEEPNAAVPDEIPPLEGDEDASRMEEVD

[8] = molecular target: T1, Trap-1; conditions: read-out: TRAP-1
[9] = molecular target: T3, Hsp90α; conditions: read-out: Hsp90α; FP competition, 6 nM Cy3B-GM, 10 nM protein, 4° C. for 24 h
[10] = system: HER2 at the plasma membrane of SKBr3 cells; assay: Immunofluorescence of HER2 architecture at the plasma membrane; format: cell-based
Method: We next investigated the biological significance of the unique association of HER^2 with Grp94 at the plasma membrane of SKBr3 cells. Because the Grp94 inhibitors described here target the ATP-binding pocket of Grp94, they affect Grp94 chaperone activity. Therefore we hypothesized that Grp94 may act on HER^2 at the plasma membrane to stabilize the protein and to regulate its function.
Immunofluorescence. Cells were seeded and grown onto culture slides (BD Falcon) for 24 hrs. After washing with cold PBS, cells were fixed by treating at 4° C. for 20 min with 4% paraformaldehyde in PBS, permeabilized with 0.1% Triton X-100 in PBS containing 10% FBS for 10 min, and blocked with 2% BSA for 1 hr. After washing for four times with PBS, primary antibodies were added onto the chambers and cell were incubated overnight at 4° C., washed again with PBS followed by incubation with the secondary antibody for 1 hr at room temperature. Cell were washed and then mounted and observed under microscope (Leica Upright Confocal SP5). The primary antibodies used in the assay are against: HER^2 (Zymed, 28004), Grp94 (Stressgen, SPA-850), Hsp70 (Stressgen, SPA-810), LAMP1-FITC (Abcam, ab25406), EEA1 (Abcam, ab70521), 58K Golgi-FITC (Abcam, ab27043) and Calnexin (BD, 610523).

Row | Structure (SMILES) | IC50 [4] [µM] | IC50 [5] | IC50 [6] [µM] | also measured
1 | COc1c(C)cnc(Cn2cnc3c(Cl)nc(N)nc32)c1C [BIIB021] |  |  |  | decrease in binding efficacy for Trap-1 [1]: 5 fold; loss of affinity for Grp94 [2]: approximately 10 fold
2 | CN(C)c1cc2c(cc1Sc1nc3c(N)nccc3n1CCNCC(C)(C)C)OCO2 [CUDC-305/Debio092] |  |  |  | loss of affinity for Trap-1 [1]: ~2 log; loss of affinity for Grp94 [2]: approximately 10 fold
3 | C=CCNC1=C2C[C@@H](C)C[C@H](OC)[C@H](O)[C@@H](C)/C=C(\C)[C@H](OC(N)=O)[C@@H](OC)/C=C\C=C(/C)C(=O)NC(=CC1=O)C2=O [Compound 17-AAG] |  |  |  | loss of affinity for Trap-1 [1]: ~2 log; IC50 ([1]; read-out: Trap-1 IC50, 43a as FP probe): 1.5 µM; IC50 ([1]; read-out: binding affinity (FP competition), probe 115a): 1.5 µM; IC50 [3]: 0.031 µM
4 | CCNC(=O)c1noc(-c2cc(C(C)C)c(O)cc2O)c1-c1ccc(CN2CCOCC2)cc1 [NVP-AUY922] |  |  |  | decrease in binding efficacy for Trap-1 [1]: 2 fold
5 | C#CCCCn1c(Sc2cc(C)cc(C)c2)nc2c(N)ncnc21 [PU-H4] |  | 11.5 ± 0.92 µM | > 300 | IC50 [7]: > 300 µM; IC50 [8]: 158 ± 9.7 µM
6 | C#CCCCn1c(Sc2cc(C)ccc2C)nc2c(N)ncnc21 [PU-H27] |  |  | > 300 | IC50 [7]: > 300 µM; IC50 [8]: 204 ± 11 µM
7 | C#CCCCn1c(Sc2cc(Cl)ccc2Cl)nc2c(N)ncnc21 [PU-H42] |  | 0.53 ± 0.1 µM |  | IC50 [7]: > 100 µM; IC50 [9]: 60.4 ± 1.6 µM; IC50 [8]: 5.1 ± 4.2 µM
8 | C#CCCCn1c(Sc2cc(Cl)c(Cl)cc2Cl)nc2c(N)ncnc21 [PU-H51] |  | 0.17 ± 0.11 µM | > 200 | IC50 [7]: > 200 µM; IC50 [8]: 78.4 ± 8.9 µM
9 | CC1(C)CC(=O)c2c(C(F)(F)F)nn(-c3ccc(C(N)=O)c(N[C@H]4CC[C@H](O)CC4)c3)c2C1 [SNX-2112] |  |  |  | loss of affinity for Grp94 [2]: approximately 10 fold
10 | CC(C)c1cc(-c2n[nH]c(=O)n2-c2ccc3c(ccn3C)c2)c(O)cc1O [STA-9090] |  |  |  | IC50 [3]: 0.01 µM
11 | CC(C)NCCCn1c(Sc2cc(Cl)cc(Cl)c2)nc2c(N)ncnc21 [WS-13, 8-((3,5-Dichlorophenyl)thio)-9-(3-(isopropylamino)propyl)-9H-purin-6-amine] |  | 0.22 ± 0.08 µM |  | IC50 ([7]; read-out: Hsp90β, FP competition, 6 nM Cy3B-GM, 10 nM protein, 4° C. for 24 h): 41.8 ± 1.3 µM; IC50 [9]: 27.3 ± 3.5 µM
12 | CS(=O)(=O)CCNCc1ccc(-c2ccc3ncnc(Nc4ccc(OCc5cccc(F)c5)c(Cl)c4)c3c2)o1 [lapatinib] |  |  |  | effect on HER2 architecture at the plasma membrane [10]: does not disrupt the HER^2 architecture at the plasma membrane; also recorded: No such effect was observed

Second part, led by results:

Row | IC50 [4] [µM] | IC50 [5] | IC50 [6] [µM] | Structure (SMILES) | also measured
13 | 3.12 | 1.3 µM | 29.6 | CC(C)NCCCn1c(Sc2cc(Cl)cc(-c3ncco3)c2)nc2c(N)ncnc21 [HJP-VI-49, 8-((3-chloro-5-(oxazol-2-yl)phenyl)thio)-9-(3-(isopropylamino)propyl)-9H-purin-6-amine] | 
14 | 0.226 | 0.34 µM | > 50 | C/C=C/c1cc(Cl)cc(Sc2nc3c(N)ncnc3n2CCCNC(C)C)c1 [HJP-VI-63, (E)-8-((3-chloro-5-(prop-1-en-1-yl)phenyl)thio)-9-(3-(isopropylamino)propyl)-9H-purin-6-amine] | 
15 | 2.16 | 0.153 µM | 13.8 | C=C(c1cc(Cl)cc(Sc2nc3c(N)ncnc3n2CCCNC(C)C)c1)C(F)(F)F [HJP-VI-70, 8-((3-chloro-5-(3,3,3-trifluoroprop-1-en-2-yl)phenyl)thio)-9-(3-(isopropylamino)propyl)-9H-purin-6-amine] | 
16 | 0.58 | 0.214 µM | 18.6 | C/C=C\c1cc(Cl)cc(Sc2nc3c(N)ncnc3n2CCCNC(C)C)c1 [HJP-VI-78, (Z)-8-((3-chloro-5-(prop-1-en-1-yl)phenyl)thio)-9-(3-(isopropylamino)propyl)-9H-purin-6-amine] | 
17 | 0.164 | 0.186 µM | > 50 | CC(C)(C)CNCCCn1c(Sc2cc(Cl)cc(Cl)c2)nc2c(N)nc(F)nc21 [HJP-VI-85, 8-((3,5-dichlorophenyl)thio)-2-fluoro-9-(3-(neopentylamino)propyl)-9H-purin-6-amine] | 
18 | 0.053 | 0.156 µM | 20.9 | CC(C)(C)NCCCn1c(Sc2cc(Cl)cc(Cl)c2)nc2c(N)nc(F)nc21 [HJP-VI-86, 9-(3-(tert-butylamino)propyl)-8-((3,5-dichlorophenyl)thio)-2-fluoro-9H-purin-6-amine] | 
19 | 0.83 | 0.345 µM | 40.4 | C[C@H](NCCCn1c(Sc2cc(Cl)cc(Cl)c2)nc2c(N)ncnc21)C1CC1 [SO-III-127B, (S)-9-(3-((1-cyclopropylethyl)amino)propyl)-8-((3,5-dichlorophenyl)thio)-9H-purin-6-amine] | 
20 | 0.84 | 0.276 µM | 35.6 | C[C@@H](NCCCn1c(Sc2cc(Cl)cc(Cl)c2)nc2c(N)ncnc21)C1CC1 [SO-III-128B, (R)-9-(3-((1-cyclopropylethyl)amino)propyl)-8-((3,5-dichlorophenyl)thio)-9H-purin-6-amine] | 
21 |  | 0.41 µM and 0.407 µM |  | CC(C)NCCCn1c(Sc2ccc(Cl)cc2Cl)nc2c(N)ncnc21 [WS-12, 8-((2,4-Dichlorophenyl)thio)-9-(3-(isopropylamino)propyl)-9H-purin-6-amine] | IC50 [9]: 20.3 ± 1.2 µM
